According to article PMC12418948, “Intranasal Administration of KCNN2 Blocking Peptide Improves Deficits in Cognitive Flexibility in Mouse Model of Fetal Alcohol Spectrum Disorders” (International Journal of Neuropsychopharmacology, 2025):
“Also recorded” adds a separate entry of the source. Positions of bridges follow the written chain, without caps; N, C: chain ends. Non-standard residues stand in square brackets, D forms with d. Residues, ends and D or L forms follow the SMILES beside them. Dab = NCC[C@H](N)C(=O)O

Experiments:
[1] = test system: Jurkat (clone E6-1) cells; experiment: ATP cell viability (cytotoxicity) assay, CellTiter-Glo 2.0; type: cell-based, human
Protocol: Potential cytotoxicity of Lei-Dab7 was assessed by an ATP detection assay. Jurkat (clone E6-1) cells were used as they express KCNN2 channels constitutively and have been used to assess the cytotoxicity of compounds that block KCNN2.[37]^,[38] After recovery from cryopreservation, cells were plated into V-bottom, 96-well plates (2 × 10^4 cells per well), and the compound (Lei-Dab7) or control (negative control: media alone or 10% PBS in media; positive control: approximately 1% sodium dodecyl sulfate in media) was added into the culture media. After incubation for 24 hours, cells were assessed for viability using a CellTiter-Glo 2.0 kit (Promega, WI). Briefly, CellTiter-Glo 2.0 reagent was thawed and warmed to approximately 22°C, then mixed by gentle inversion. Once thoroughly mixed, 100 μL of reagent was distributed into each well, and the plates were gently mixed for approximately 2 minutes on an orbital shaker for cell lysis. The plates were then incubated for approximately10 minutes at room temperature to stabilize the luminescent signal. The amount of light produced from each well was quantified using a Cytation 5 plate reader (BioTek, VT). Cell viability was calculated as a percentage of the mean of the negative control […] for each well. […]

KCNN2 = experiment: Intranasal delivery to PFC, immunohistochemistry for biotin and KCNN2; type: in vivo, mouse (CD-1); details: PFC in addition to motor cortex
Protocol: Mice were deeply anesthetized with isoflurane (Henry Schein, OH) and perfused through the ascending aorta with ice cold 4% paraformaldehyde (PFA) following a standard laboratory protocol. Brains were collected and post-fixed in 4% PFA at 4°C overnight, followed by incubation in 10% and 30% sucrose in PBS at 4°C for 24 hours. Coronal sections at 60 μm thickness were made using a cryostat (CM3050S; Leica, Germany). Free floating sections were incubated with hydrogen peroxide in methanol (1:4) solution at −20°C for 20 minutes to inactivate endogenous peroxidase activity. […]
Lei-Dab7 or biotinylated Lei-Dab7 (Smartox Biotechnology, France) was dissolved in PBS and administered to mice intranasally at 3.0 μg/kg/day. […] Physiological monitoring was recorded at 30 minutes and 24 hours post administration by using PhysioSuite (Kent Scientific, CT).
KCNN2, NeuN, GFAP, IBA1, and biotin-positive cells were quantified. […] Allen Brain Atlas was used to define different brain regions visualized by DAPI staining, and single-plane images from defined regions were used for the quantification. The researcher conducting the quantification was blinded to treatment groups throughout the analysis to minimize bias. The size of the region of interest was determined for each analysis to include a sufficient number of labeled cells with clear and detailed staining. […]

CC[C@H](C)[C@@H]1NC(=O)[C@@H]2CSSC[C@H](NC(=O)[C@H](Cc3ccccc3)NC(=O)[C@H](C)N)C(=O)N[C@@H](CC(N)=O)C(=O)N[C@@H](CC(C)C)C(=O)N[C@@H](CCCNC(=N)N)C(=O)N[C@@H](CCN)C(=O)N[C@H]3CSSC[C@H](NC(=O)[C@H](CCCCN)NC(=O)[C@H](CC(=O)O)NC(=O)CNC1=O)C(=O)N[C@@H](CCC(=O)O)C(=O)N[C@H](C(=O)N[C@H](C(=O)N[C@@H](CCCCN)C(=O)N[C@@H](Cc1c[nH]cn1)C(N)=O)C(C)C)CSSC[C@H](NC(=O)[C@H](CO)NC(=O)[C@H](CC(C)C)NC(=O)[C@H](CCC(N)=O)NC3=O)C(=O)N[C@@H](CCCNC(=N)N)C(=O)N[C@@H](CO)C(=O)N[C@@H](CC(C)C)C(=O)NCC(=O)N[C@@H](CC(C)C)C(=O)N[C@@H](CC(C)C)C(=O)NCC(=O)N[C@@H](CCCCN)C(=O)N2 [Lei-Dab7, Leiurotoxin-1 Dab7] (H-AFCNLR[Dab]CQLSCRSLGLLGKCIGDKCECVKH-NH2; disulfide 3-21, 8-26, 12-28)
cytotoxicity ([1]; 24-hour culture, ATP cell viability assay, even as high as at 100 μM): did not show any cytotoxicity | cytotoxicity (summary wording) ([1]; in vitro, abstract/introduction wording): negligible cytotoxicity; also recorded: no detectable cytotoxicity | delivery to target brain regions (KCNN2): efficiently reaches the target in the brain; also recorded: effectively reaches its target regions, including the PFC (Figs. 3, 4) in addition to the motor cortex
